In article PMC11473290, “1,3,4-oxadiazoles as inhibitors of the atypical member of the BET family bromodomain factor 3 from Trypanosoma cruzi (TcBDF3)” (Frontiers in Microbiology, 2024):
Read-outs that look alike come from different tables or passages of the source.

Legend:
TcBDF3 [1] = molecular target: T1, TcBDF3 (Trypanosoma cruzi, UniProt Q4DXV1); experiment: Thermal shift assay (DSF), dissociation constants; format: binding; conditions: full-length TcBDF3; SD from three independent experiments
T1 sequence (Q4DXV1 entry or part of it): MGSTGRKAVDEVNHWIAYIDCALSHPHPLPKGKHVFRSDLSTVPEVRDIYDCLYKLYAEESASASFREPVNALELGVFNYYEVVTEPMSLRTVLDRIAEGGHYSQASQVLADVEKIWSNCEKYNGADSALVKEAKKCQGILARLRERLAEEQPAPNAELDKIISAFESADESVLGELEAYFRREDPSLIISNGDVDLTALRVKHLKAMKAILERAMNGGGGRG
Protocol: The proteins were buffered in 10-mM HEPES, pH 7.5, and 500 mM NaCl and assayed in a 48-well plate at a final concentration of 2 μM in a volume of 20 μL. Compounds were added at a final concentration between 1 and 200 μM to calculate dissociation constants. In this assay, A1B4, A1B4c, A5B4 and A5B4c were used. SYPRO Orange (Invitrogen) was added as a fluorescence probe at a dilution of 1:1000. The excitation and emission filters for the SYPRO Orange dye were set at 465 and 590 nm, respectively. The temperature was increased with steps of 2°C/min from 25°C to 96°C, and fluorescence readings were taken at each interval in a CFX Opus 96 Real-Time System (Biorad) and analyzed using Maestro Software (Biorad). The melting curves and average melting temperature for each condition were obtained and plotted in temperature vs. concentration graphs in GraphPad Prism 9.0. Plots were fitted using the differential fluorescence scanning (DSF) single binding site equation to obtain the dissociation constants (Kd) in GraphPad Prism 9.0.

[2] = tested on: T. cruzi Dm28c trypomastigotes; experiment: Beta-galactosidase assay, trypomastigotes; format: cell-based, Trypanosoma cruzi; conditions: for SI (T), CC50/IC50 trypomastigotes: CC50 Vero cells / IC50
Protocol: (§1) T. cruzi Dm28c that expresses the E. coli LacZ gene epimastigotes, trypomastigotes, and amastigotes were cultured and obtained as previously described ([Buckner et al., 1996]; [Alonso et al., 2021]). […] The controls included for the amastigotes (intracellular stage) were (a) uninfected cells and (b) infected with 1 μg/mL benznidazole (BZ) (positive control) and 1% DMSO to evaluate the toxicity of the solvent. For epimastigotes and trypomastigotes, the controls used were: 1-μg/ml benznidazole (BZ) (positive control) and 1% DMSO to evaluate solvent toxicity. Results obtained with this assay were verified by manually counting the parasites. The results were expressed as the percentage of inhibition of T. cruzi growth in compound-treated infected cells compared to untreated infected cells for amastigotes. For epimastigotes and trypomastigotes, treated and untreated cultured parasites were compared. Quadruplicates were run in the same microplate and repeated in three experiments. Half-maximal IC50 values were calculated using non-linear regression on GraphPad Prism 9.0, as previously described ([Alonso et al., 2021]).

[3] = MTT assay, cell viability; format: cell-based; conditions: African green monkey, Vero cells
Protocol: The 3-(4,5-dimethylthiazol-2-yl)-2,5-diphenyltetrazolium bromide (MTT) reduction assay determined cell viability after treatment as previously described ([García et al., 2018]). Optical density (OD) was spectrophotometrically quantified (λ = 540 nm) using a Synergy HT multidetection microplate reader. DMSO was used as blank, and each treatment was performed in triplicates. The 50% cytotoxic concentration (CC50) values were calculated by non-linear regression on GraphPad Prism 9.0, and the selectivity indexes (SI) were determined as the ratio CC50/IC50 in all three life cycle stages.

TcBDF3 [4] = molecular target: T1, TcBDF3; experiment: Fluorescence polarization (FP) assay, displacement of BSP-AF488 probe; format: binding; conditions: 0.5 μM BSP-AF488, 100-μM TcBDF3
Protocol: FP measurement was performed on a Cary Eclipse spectrophotometer equipped with a polarizer at an excitation wavelength of 488 nm and an emission wavelength of […] in a 3-ml fluorescence cuvette. The essay was set at a final volume of 2 mL, 0.5 μM of BSP-AF488, 100-μM TcBDF3, phosphate pH = 8, glycerol 1%, and DMSO 0.5%. The FP values were plotted against the log of the compound concentrations in a non-linear regression model in GraphPad Prism 9.0 as previously described ([Zhang et al., 2002]). In this assay, A1B4, A1B4c, and A5B4c were used. Briefly, free and bound probes (BSP-AF488 in the presence of TcBDF3) were included in each replica. Since the intensity of the probe remains similar for all samples, the fraction of the probe bound to TcBDF3 is correlated to the mP value. Thus, the percentage of inhibition can be derived from the equation % inhibition =100[1 − (mP − mPf)/(mPb − mPf)], in which mPf is the free probe control and mPb is the bound probe control. Based on the percentage of inhibition, the inhibitory concentration (IC50), or the inhibitor concentration at which 50% of the bound probe is displaced, is obtained by fitting the inhibition data.

[5] = tested on: T. cruzi Dm28c amastigotes; experiment: Beta-galactosidase assay, amastigotes in Vero cells; format: cell-based, Trypanosoma cruzi; conditions: for SI (A), CC50/IC50 amastigotes: CC50 Vero cells / IC50; for IC50: Dm28c strain expressing β-galactosidase, 48 h postinfection of Vero cells, read-out: IC50 ± SD Amastigotes
Protocol: as §1

[6] = tested on: T. cruzi Dm28c epimastigotes; experiment: Beta-galactosidase assay, epimastigotes; format: cell-based, Trypanosoma cruzi; conditions: for SI (E), CC50/IC50 epimastigotes: CC50 Vero cells / IC50; for IC50: Dm28c strain expressing β-galactosidase, read-out: IC50 ± SD Epimastigotes
Protocol: as §1

[7] = tested on: T. cruzi Dm28c trypomastigotes; design: method as in García et al., 2018; conditions: already published, ref García et al., 2018, cited from earlier work
[8] = tested on: TcBD2 (recombinant bromodomain of TcBDF2); experiment: Tryptophan intrinsic fluorescence quenching assay; format: binding, Trypanosoma cruzi; conditions: 10-μM protein; 5, 10 and 20 μM compound; cut-off 0.9 normalized units
Protocol: (§2) 96-well black microplates with 10-μM recombinant proteins (TcBDF3, TcBDF3m, TcBD3, and TcBD2) and three concentrations of each compound were used (5, 10, and 20 μM). In this assay, A1B4 and iBET-151 (positive control) were used. All determinations were made from the top with an excitation wavelength of 275 and a 340/30 nm emission filter, 50 reads per well, and a PMT-sensitivity setting of 180 in a Synergy HT multidetection microplate reader equipped with time-resolved capable optics. Each condition was tested in triplicates, and normalized maximum fluorescence intensityvs. Concentration was plotted using GraphPad Prism 9.0. The relative fluorescence intensity obtained to the condition without the inhibitor was normalized.

[9] = tested on: TcBDF3m (Y123A and L130A); experiment: Tryptophan intrinsic fluorescence quenching assay; format: binding, Trypanosoma cruzi; conditions: 10-μM protein; 5, 10 and 20 μM compound; cut-off 0.9 normalized units
Protocol: as §2

[10] = tested on: TcBD3 (bromodomain of TcBDF3, amino acids 1-151); experiment: Tryptophan intrinsic fluorescence quenching assay; format: binding, Trypanosoma cruzi; conditions: 10-μM protein; 5, 10 and 20 μM compound; cut-off 0.9 normalized units
Protocol: as §2

Vero cells = tested on: Vero cells; design: method as in García et al., 2018; conditions: MTT; already published; ref García et al., 2018; cited from earlier work
[11] = tested on: T. cruzi Dm28c epimastigotes; design: method as in García et al., 2018; conditions: already published, ref García et al., 2018, cited from earlier work
TcBDF3 [12] = molecular target: T1, TcBDF3; conditions: full-length TcBDF3; previously published; ref García et al., 2018; read-out: Kd ± SD DSF; cited from earlier work
[13] = tested on: T. cruzi Dm28c amastigotes; design: method as in García et al., 2018; conditions: already published, ref García et al., 2018, cited from earlier work

| SMILES | Kd (TcBDF3 [1]) [µM] | SI (T), CC50/IC50 trypomastigotes [2] | CC50 [3] [µM] | IC50 (TcBDF3 [4]) [µM] | SI (A), CC50/IC50 amastigotes [5] | IC50 ([5]; Trypanosoma cruzi, Vero, 48 h) [µM] | SI (E), CC50/IC50 epimastigotes [6] | IC50 ([6]; Trypanosoma cruzi) [µM] | other results |
| --- | --- | --- | --- | --- | --- | --- | --- | --- | --- |
| O=C(N/N=C/c1ccc(CO)o1)c1cccs1 [A5B4, (E/Z)-N′-((5-(hydroxymethyl)furan-2-yl)methylene) thiophene-2-carbohydrazide] | 136 ± 2.4 |  |  |  |  |  |  |  |  |
| OCc1ccc(-c2nnc(-c3cccs3)o2)o1 [A5B4c, (5-(5-(thiophene-2-yl)-1,3,4-oxadiazol-2-yl)furan-2-yl)methanol] | 4.8 ± 0.2 | 23.5 | 316 ± 4.35 | 10.5 ± 0.9 | 37 | 8.49 ± 1.63 | 21.3 | 14.8 ± 1.38 | IC50 ([2]; Trypanosoma cruzi, Dm28c strain expressing β-galactosidase, read-out: IC50 ± SD Tripomastigotes): 13.4 ± 1.25 µM |
| COc1cc(-c2nnc(-c3cccs3)o2)ccc1O [A1B4c, 2-methoxy-4-(5-(thiophen-2-yl)-1,3,4-oxadiazol-2-yl)phenol] | 4 ± 0.3 | 54.4 | 90.8 ± 3.54 | 8.4 ± 0.5 | 13 | < 10 | 11 | < 10 | melting point: 224 °C; IC50 [5]: 6.9 ± 0.67 µM; IC50 [6]: 8.13 ± 0.87 µM |
| COc1cc(/C=N/NC(=O)c2cccs2)ccc1O [A1B4, (E)-N′-(4-hydroxy-3-methoxybenzylidene)thiophene-2-carbohydrazide] |  |  |  | 2.4 ± 0.3 |  |  |  |  | IC50 ([7]; Dm28c strain expressing β-galactosidase, read-out: IC50 ± SD Tripomastigotes): 17.8 ± 2.13 µM; SI (T), CC50/IC50 trypomastigotes [7]: 15; Binding (fluorescence quenching) [8]: did not bind; Binding (fluorescence quenching) [9]: did not bind; Binding (fluorescence quenching) [10]: binds; CC50 (Vero cells): 269 ± 4.28 µM; IC50 ([11]; Dm28c strain expressing β-galactosidase, read-out: IC50 ± SD Epimastigotes): 23 ± 2.04 µM; SI (E), CC50/IC50 epimastigotes [11]: 11.7; Kd (TcBDF3 [12]): 1.7 ± 0.2 µM; IC50 ([13]; Dm28c strain expressing β-galactosidase, read-out: IC50 ± SD Amastigotes): 13.1 ± 1.43 µM; SI (A), CC50/IC50 amastigotes [13]: 20.5 |
